# Reference: publication PMC10199020 (Nature Communications, 2023)
# Bridge positions count the residues as written; N and C are the ends. Square brackets hold non-standard residues; d marks the D form. Peptide text beside a SMILES is read from it. * marks the point of attachment. 5TAMRA = CN(C)c1ccc2c(c1)Oc1cc(N(C)C)ccc1C21OC(=O)c2cc(C(=O)*)ccc21; 2Nal = N[C@@H](Cc1ccc2ccccc2c1)C(=O)O; Pen = CC(C)(S)[C@H](N)C(=O)O; Aib = CC(C)(N)C(=O)O
# Molecular target: T1, NL-IL12Rβ1 with IL23R (Homo sapiens, UniProt Q5VWK5)
# T1 construct: untagged full-length IL23R could be measured in the membranes of living cells; expressed in transfected cells; host or cells: HEK293T, transient transfection
# T1 sequence (Q5VWK5 24-629, other chains not shown): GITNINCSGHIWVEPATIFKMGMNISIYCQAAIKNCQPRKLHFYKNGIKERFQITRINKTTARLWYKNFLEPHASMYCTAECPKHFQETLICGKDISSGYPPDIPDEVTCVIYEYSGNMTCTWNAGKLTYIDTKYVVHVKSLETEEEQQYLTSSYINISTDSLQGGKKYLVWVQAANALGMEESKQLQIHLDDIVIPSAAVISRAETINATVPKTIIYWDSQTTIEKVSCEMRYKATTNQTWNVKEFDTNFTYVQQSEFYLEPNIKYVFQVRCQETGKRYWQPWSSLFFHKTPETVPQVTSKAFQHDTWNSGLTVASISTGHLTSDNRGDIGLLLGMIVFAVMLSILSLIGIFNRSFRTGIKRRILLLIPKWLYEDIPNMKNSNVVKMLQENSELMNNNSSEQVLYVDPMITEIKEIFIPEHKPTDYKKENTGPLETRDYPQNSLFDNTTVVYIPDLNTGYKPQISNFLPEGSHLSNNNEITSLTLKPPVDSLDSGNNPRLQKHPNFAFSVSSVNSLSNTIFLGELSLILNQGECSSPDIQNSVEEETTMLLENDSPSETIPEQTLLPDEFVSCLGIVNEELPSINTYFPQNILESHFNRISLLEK
# Assay: P630-TMR NanoBRET binding assay, NL-IL12Rβ1 with IL23R
# Details: for BRET ratio, Specific (Mean) / BRET ratio, Non-specific (Mean): Fig. 2e; for BRET ratio, Non-specific (Mean): with 10 μM P630; for % maximum BRET ratio (Mean): Figure 2 sheet Panel g; for % maximum BRET ratio (Mean) / BRET ratio with non-specific binding subtracted (Mean): IL23R + NL-IL12RB1; for BRET ratio with non-specific binding subtracted (Mean): Figure 2 sheet Panels f, h
# Text: A standard curve was used to predict the expression level of NanoLuc labelled receptor in each experiment (Supplementary Fig. 1).
# Fig. 2 Creation and characterisation of a fluorescent cyclic peptide probe for IL23R. […] Data are normally mean ± SEM from five independent experiments. Details on absolute number of data points included for each concentration are provided in the associated Source Data file. In each individual saturation experiment triplicate determinations were normally made for total binding and duplicate measurements were made for non-specific binding.
# Media was removed from white 96-well microplates containing transfected cells and replaced with fluoroprobe in the presence or absence of antagonist in 50 μL Hanks Balanced Salt Solution (HBSS) with 1 mg/mL BSA (Merck). After a 1-hour incubation at 37 °C without CO2, 5 μL of HBSS containing 77 μM furimizine was added to each well (final concentration 7 μM), the plate incubated for 5-minutes and the BRET signal measured using a PheraStar FS plate reader (BMG Labtech; data acquisition software version 5.41; MARS analysis software version 3.32) with a 450 ± 30 nm and >550 nm long pass filters.
# Ligand binding data were fitted with the equation:2 BRETratio=Bmax[A]/([A]+KD)+(BA+C). Where ‘Bmax’ is the maximum specific binding BRET signal, ‘[A]’ is fluorescent probe concentration, ‘B’ is the non-specific binding component’s slope and ‘C’ is the Y intercept.
# Specific binding data was generated by subtracting the BRET values gained in the presence of an excess of unlabelled probe from the BRET ratios gained in the absence of unlabelled probe. Specific binding data were fit using the equation:3 Y=Bmax[B]/(B+KD) where ‘Bmax’ is the maximum specific binding signal of the curve and ‘[B]’ is the concentration of fluorescent probe.
# [1] = NL-IL12Rβ1 and IL23R, P630-TMR 0.457247 nM
# [2] = NL-IL12Rβ1 and IL23R, P630-TMR 1.37174 nM
# [3] = NL-IL12Rβ1 and IL23R, P630-TMR 4.11523 nM
# [4] = NL-IL12Rβ1 and IL23R, P630-TMR 12.3457 nM
# [5] = NL-IL12Rβ1 and IL23R, P630-TMR 37.037 nM
# [6] = NL-IL12Rβ1 and IL23R, P630-TMR 111.111 nM
# [7] = NL-IL12Rβ1 and IL23R, P630-TMR 1000 nM
# [8] = NL-IL12Rβ1 and IL23R, P630-TMR 3000 nM
smiles,measurement,setting,value
COc1ccc(C[C@H](NC(=O)[C@H]2NC(=O)[C@H](CCC(N)=O)NC(=O)[C@H](Cc3c[nH]c4ccccc34)NC(=O)[C@H]([C@@H](C)O)NC(=O)[C@H](CC(N)=O)NC(=O)[C@@H](NC(C)=O)C(C)(C)SSC2(C)C)C(=O)N[C@@H](Cc2ccc3ccccc3c2)C(=O)NC(C)(C)C(=O)N[C@@H](CCC(=O)O)C(=O)N[C@@H](CC(N)=O)C(=O)N[C@@H](CC(N)=O)C(=O)N[C@@H](CCCCNC(=O)c2ccc3c(c2)C(=O)OC32c3ccc(N(C)C)cc3Oc3cc(N(C)C)ccc32)C(N)=O)cc1 [P630-TMR] (Ac-[Pen]NTWQ[Pen]Y(Me)[2Nal][Aib]ENNK(5TAMRA)-NH2; disulfide 1-6),"BRET ratio, Specific (Mean)",[1],0.2494
same,"BRET ratio, Specific (Mean)",[2],0.2506
same,"BRET ratio, Specific (Mean)",[3],0.2544
same,"BRET ratio, Specific (Mean)",[4],0.2565
same,"BRET ratio, Specific (Mean)",[5],0.2604
same,"BRET ratio, Specific (Mean)",[6],0.269
same,"BRET ratio, Specific (Mean)",[7],0.2823
same,"BRET ratio, Specific (Mean)",[8],0.2959
same,"BRET ratio, Non-specific (Mean)",[1],0.245
same,"BRET ratio, Non-specific (Mean)",[2],0.2494
same,"BRET ratio, Non-specific (Mean)",[3],0.2477
same,"BRET ratio, Non-specific (Mean)",[4],0.2499
same,"BRET ratio, Non-specific (Mean)",[5],0.2505
same,"BRET ratio, Non-specific (Mean)",[6],0.2497
same,"BRET ratio, Non-specific (Mean)",[7],0.2599
same,"BRET ratio, Non-specific (Mean)",[8],0.2729
same,"BRET ratio, Non-specific (Mean)","NL-IL12Rβ1 and IL23R, P630-TMR […]",0.2519
same,% maximum BRET ratio (Mean),P630-TMR 0.457247 nM,20.2943%
same,% maximum BRET ratio (Mean),P630-TMR 1.37174 nM,3.037%
same,% maximum BRET ratio (Mean),P630-TMR 4.11523 nM,30.2039%
same,% maximum BRET ratio (Mean),P630-TMR 12.3457 nM,28.4128%
same,% maximum BRET ratio (Mean),P630-TMR 37.037 nM,44.6085%
same,% maximum BRET ratio (Mean),P630-TMR 111.111 nM,87.2944%
same,% maximum BRET ratio (Mean),P630-TMR 1000 nM,109.773%
same,% maximum BRET ratio (Mean),P630-TMR 3000 nM,100.001%
same,BRET ratio with non-specific binding subtracted (Mean),P630-TMR 0.457247 nM,0.00447
same,BRET ratio with non-specific binding subtracted (Mean),P630-TMR 1.37174 nM,0.001281
same,BRET ratio with non-specific binding subtracted (Mean),P630-TMR 4.11523 nM,0.006719
same,BRET ratio with non-specific binding subtracted (Mean),P630-TMR 12.3457 nM,0.00665
same,BRET ratio with non-specific binding subtracted (Mean),P630-TMR 37.037 nM,0.009959
same,BRET ratio with non-specific binding subtracted (Mean),P630-TMR 111.111 nM,0.01927
same,BRET ratio with non-specific binding subtracted (Mean),P630-TMR 1000 nM,0.02313
same,BRET ratio with non-specific binding subtracted (Mean),P630-TMR 3000 nM,0.02294
same,Kd,"NL-IL12Rβ1 and IL23R, mean ± SEM",55.2 ± 10.5 nM
same,"Bmax, fold lower than NL-IL23R with IL12Rβ1",NL-IL12Rβ1 with IL23R,42.53 fold
